In ChEMBL document CHEMBL5226287, “Small organic molecules targeting the energy metabolism of Mycobacterium tuberculosis” (Eur J Med Chem, 2021):
Starred links: 1 amine or outer side, 2 acyl side, 3 side chain; linkers in the order of their positions; H or OH if unused. Non-standard residues stand in square brackets, D forms with d. Residues, ends and D or L forms follow the SMILES beside them. ξ: configuration not given here. *: point of attachment. X1 = CCC(=O)C[C@@H](O)C[C@@H](C)C[C@H](N[*:1])C(=O)[*:2]; Alaψ(CH2NMeCH2CH2OH) = C[C@@H](CN(C)CCO)N*; Decanoyl(2R-Me) = CCCCCCCC[C@@H](C)C(=O)*; Ile(3ξ) = CCC(C)[C@H](N)C(=O)O; ξβ3hP = O=C(O)CC1CCCN1; Aib = CC(C)(N)C(=O)O

Legend:
[1] = Inhibition of Mycobacterium smegmatis cytochrome bd oxidase with ATP synthase overexpression inverted membrane vesicles; assay type: cell membranes, Mycobacterium tuberculosis, Membrane vesicle
[2] = Inhibition of Mycobacterium bovis BCG cytochrome bd oxidase with ATP synthase overexpression inverted membrane vesicles; assay type: cell membranes, Mycobacterium tuberculosis variant bovis, Membrane vesicle
[3] = Inhibition of Mycobacterium smegmatis cytochrome bd oxidase with ATP overexpression inverted membrane vesicles; assay type: cell membranes, Mycobacterium tuberculosis, Membrane vesicle

SMILES | IC50 [1] | IC50 [2] | IC50 [3]
CCCCCCCC[C@@H](C)C(=O)N1CCCC1CC(=O)N[C@@H](C[C@H](C)C[C@H](O)CC(=O)CC)C(=O)NC(C)(C)C(=O)NC(C)(C)C(=O)N[C@H](C(=O)N[C@H](C(=O)NC(C)(C)C(=O)NC(C)(C)C(=O)N[C@@H](C)CN(C)CCO)C(C)C)C(C)CC (stereo partly drawn) ({Decanoyl(2R-Me)}-[ξβ3hP][X1][Aib][Aib][Ile(3ξ)]V[Aib][Aib]-{Alaψ(CH2NMeCH2CH2OH)}) | 0.5 µM | 5.2 µM | –
O=C(CNC1CCCCC1)N(c1ccccc1)c1ccccc1 | – | – | 10.4 µM
O=C(CNC1CCCC1)N(c1ccccc1)c1ccccc1 | – | – | 14 µM
